According to PubChem BioAssay AID330 (DTP/NCI, 2004):
Several values for one entry are separate records, joined by “and”; a condition that tells them apart may be missing. Equal values may be shown once. Toxic doses and inconclusive results are not listed. Rule for the calls: active = survival T/C of 150% or more; inactive = T/C below 125% in these data.

System: P388 leukemia ip, CD2F1 mice, survival T/C
Assay: NCI In Vivo Anticancer Drug Screen. Data for tumor model P388 Leukemia (intraperitoneal) in CD2F1 (CDF1) mice
Conditions: endpoint: median survival time, higher = longer survival
Summary of the method: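 Mice carrying the transplanted tumor received test compound or vehicle. Survival was recorded in each group, and the value is the treated-group measurement divided by that of the vehicle-treated control group.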

[1] = dose: 50.0 mg/kg/injection, schedule: Q01DX009 (ip), vehicle: Klucel (hydroxypropylcellulose) (HPC)
[2] = dose: 50.0 mg/kg/injection, schedule: Q01DX005 (ip), vehicle: saline with Tween-80
[3] = dose: 100.0 mg/kg/injection, schedule: Q01DX005 (ip), vehicle: saline with Tween-80
[4] = dose: 200.0 mg/kg/injection, schedule: Q01DX005 (ip), vehicle: saline with Tween-80
[5] = dose: 50.0 mg/kg/injection, schedule: Q01DX009 (ip), vehicle: saline with Tween-80
[6] = dose: 100.0 mg/kg/injection, schedule: Q01DX009 (ip), vehicle: saline with Tween-80
[7] = dose: 200.0 mg/kg/injection, schedule: Q01DX009 (ip), vehicle: saline with Tween-80
[8] = dose: 60.0 mg/kg/injection, schedule: Q01DX005 (ip), vehicle: saline with Tween-80
[9] = dose: 120.0 mg/kg/injection, schedule: Q01DX005 (ip), vehicle: saline with Tween-80
[10] = dose: 240.0 mg/kg/injection, schedule: Q01DX005 (ip), vehicle: saline with Tween-80

Measured: T/C

COC(=O)[C@@]12OC[C@]34[C@H]([C@@H](O)[C@@H]1O)[C@@]1(C)CC(=O)C(O)=C(C)[C@@H]1C[C@H]3OC(=O)[C@H](OC(=O)C(N)Cc1ccccc1)[C@@H]24 (some centres undefined)
inactive: dose: 0.5 mg/kg/injection, schedule: Q01DX005 (ip), vehicle: Klucel (hydroxypropylcellulose) (HPC) 107 % of control | dose: 1.0 mg/kg/injection, schedule: Q01DX005 (ip), vehicle: Klucel (hydroxypropylcellulose) (HPC) 103 % of control and 107 % of control | dose: 2.0 mg/kg/injection, schedule: Q01DX005 (ip), vehicle: Klucel (hydroxypropylcellulose) (HPC) 108 % of control and 119 % of control | dose: 4.0 mg/kg/injection, schedule: Q01DX005 (ip), vehicle: Klucel (hydroxypropylcellulose) (HPC) 112 % of control | dose: 8.0 mg/kg/injection, schedule: Q01DX005 (ip), vehicle: Klucel (hydroxypropylcellulose) (HPC) 110 % of control | dose: 125.0 micrograms/kg/injection, schedule: Q01DX005 (ip), vehicle: Klucel (hydroxypropylcellulose) (HPC) 96 % of control | dose: 250.0 micrograms/kg/injection, schedule: Q01DX005 (ip), vehicle: Klucel (hydroxypropylcellulose) (HPC) 107 % of control | dose: 500.0 micrograms/kg/injection, schedule: Q01DX005 (ip), vehicle: Klucel (hydroxypropylcellulose) (HPC) 98 % of control | dose: 1000.0 micrograms/kg/injection, schedule: Q01DX005 (ip), vehicle: Klucel (hydroxypropylcellulose) (HPC) 107 % of control

NC(=O)c1c[n+]([O-])ccc1[N+](=O)[O-]
inactive: dose: 6.25 mg/kg/injection, schedule: Q01DX009 (ip), vehicle: Klucel (hydroxypropylcellulose) (HPC) 108 % of control | dose: 12.5 mg/kg/injection, schedule: Q01DX009 (ip), vehicle: Klucel (hydroxypropylcellulose) (HPC) 117 % of control | dose: 25.0 mg/kg/injection, schedule: Q01DX009 (ip), vehicle: Klucel (hydroxypropylcellulose) (HPC) 117 % of control | [1] 119 % of control

Cc1ccc2c(c1)Nc1c(ccc3ccccc13)S2
inactive: [2] 105 % of control | [3] 105 % of control | [4] 103 % of control

COC(=O)c1nc(=S)[nH]c(C(=O)OC)c1C(=O)c1cccc2ccccc12
inactive: dose: 60.0 mg/kg/injection, schedule: Q01DX005 (ip), vehicle: Klucel + Tween-80 102 % of control | dose: 120.0 mg/kg/injection, schedule: Q01DX005 (ip), vehicle: Klucel + Tween-80 95 % of control | dose: 240.0 mg/kg/injection, schedule: Q01DX005 (ip), vehicle: Klucel + Tween-80 92 % of control

Oc1ccc2ccccc2c1C=Nc1ccc(N=Cc2c(O)ccc3ccccc23)cc1
inactive: dose: 100.0 mg/kg/injection, schedule: Q01DX001 (ip), vehicle: saline with Tween-80 91 % of control | dose: 200.0 mg/kg/injection, schedule: Q01DX001 (ip), vehicle: saline with Tween-80 90 % of control | dose: 400.0 mg/kg/injection, schedule: Q01DX001 (ip), vehicle: saline with Tween-80 91 % of control

[O-]/[N+](=C\c1c(Cl)cccc1Cl)CC1(O)CCCCC1
inactive: [5] 96 % of control | [6] 90 % of control | [7] 99 % of control

CCOC(=O)CCC(NC(=O)c1ccc(NCc2cnc3nc(N)nc(N)c3c2)cc1)C(=O)OCC (centres undefined)
inactive: dose: 2.0 mg/kg/injection, schedule: Q01DX005 (ip), vehicle: saline with Tween-80 104 % of control | dose: 125.0 micrograms/kg/injection, schedule: Q01DX005 (ip), vehicle: saline with Tween-80 114 % of control
active: dose: 0.25 mg/kg/injection, schedule: Q01DX005 (ip), vehicle: saline with Tween-80 162 % of control | dose: 0.5 mg/kg/injection, schedule: Q01DX005 (ip), vehicle: saline with Tween-80 158 % of control and 183 % of control | dose: 1.0 mg/kg/injection, schedule: Q01DX005 (ip), vehicle: saline with Tween-80 183 % of control and 218 % of control | dose: 1000.0 micrograms/kg/injection, schedule: Q01DX005 (ip), vehicle: saline with Tween-80 151 % of control

CCOC(=O)c1cc(NO)c(=O)c2ccc(OC)cc2c1
inactive: dose: 25.0 mg/kg/injection, schedule: Q01DX005 (ip), vehicle: saline with Tween-80 91 % of control | [2] 90 % of control and 96 % of control | [3] 89 % of control | [4] 91 % of control

Cc1ccc2c(c1)C(O)(CC(=O)c1ccccc1)C(=O)N2 (centres undefined)
inactive: [5] 99 % of control | [6] 96 % of control | [7] 95 % of control

N#CCc1ccccc1Br
inactive: [2] 93 % of control | [3] 101 % of control

COC(=O)c1[nH]c(=O)c(C#N)c(C(=O)OC)c1-c1ccccn1
inactive: [8] 93 % of control | [9] 92 % of control | [10] 92 % of control

CC(C)(C)c1ccc(N2CSC(=S)N(c3ccc(C(C)(C)C)cc3)C2)cc1
inactive: [5] 96 % of control | [6] 89 % of control | [7] 90 % of control

Cc1nc2cc3c(=O)n(C)cnc3cc2n1Cc1ccccc1
inactive: dose: 12.5 mg/kg/injection, schedule: Q04DX002 (ip), vehicle: Klucel (hydroxypropylcellulose) (HPC) 104 % of control | dose: 25.0 mg/kg/injection, schedule: Q04DX002 (ip), vehicle: Klucel (hydroxypropylcellulose) (HPC) 104 % of control | dose: 50.0 mg/kg/injection, schedule: Q04DX002 (ip), vehicle: Klucel (hydroxypropylcellulose) (HPC) 107 % of control

O=C(O)c1cc2sccc2c(=O)[nH]1
inactive: dose: 100.0 mg/kg/injection, schedule: Q04DX003 (ip), vehicle: Klucel (hydroxypropylcellulose) (HPC) 102 % of control | dose: 200.0 mg/kg/injection, schedule: Q04DX003 (ip), vehicle: Klucel (hydroxypropylcellulose) (HPC) 113 % of control | dose: 400.0 mg/kg/injection, schedule: Q04DX003 (ip), vehicle: Klucel (hydroxypropylcellulose) (HPC) 103 % of control

COc1ccc(N=Cc2ccccc2P(c2ccccc2)c2ccccc2)cc1
inactive: [1] 101 % of control | dose: 100.0 mg/kg/injection, schedule: Q01DX009 (ip), vehicle: Klucel (hydroxypropylcellulose) (HPC) 100 % of control | dose: 200.0 mg/kg/injection, schedule: Q01DX009 (ip), vehicle: Klucel (hydroxypropylcellulose) (HPC) 100 % of control

C/C(=C/C(=O)Nc1ccccc1)Nc1onc(C)c1C
inactive: [8] 102 % of control | [9] 96 % of control | [10] 90 % of control

[Cl][Sn]([Cl])([S]c1nccc2ccccc12)[S]c1nccc2ccccc12
inactive: [5] 102 % of control | [6] 93 % of control | [7] 93 % of control

C/C(=N\O)C1CC2C=C(C#N)C1N(Cc1ccccc1)C2 (centres undefined)
inactive: dose: 8.75 mg/kg/injection, schedule: Q01DX005 (ip), vehicle: Klucel (hydroxypropylcellulose) (HPC) 96 % of control | dose: 17.5 mg/kg/injection, schedule: Q01DX005 (ip), vehicle: Klucel (hydroxypropylcellulose) (HPC) 93 % of control | dose: 35.0 mg/kg/injection, schedule: Q01DX005 (ip), vehicle: Klucel (hydroxypropylcellulose) (HPC) 123 % of control

NC(=O)C(CC(C(=O)O)c1ccccc1)c1ccccc1 (centres undefined)
inactive: dose: 100.0 mg/kg/injection, schedule: Q01DX001 (ip), vehicle: Klucel (hydroxypropylcellulose) (HPC) 99 % of control | dose: 200.0 mg/kg/injection, schedule: Q01DX001 (ip), vehicle: Klucel (hydroxypropylcellulose) (HPC) 96 % of control | dose: 400.0 mg/kg/injection, schedule: Q01DX001 (ip), vehicle: Klucel (hydroxypropylcellulose) (HPC) 97 % of control

Cc1ccc(NC2OC(CO)C(O)C2O)c([N+](=O)[O-])c1 (centres undefined)
inactive: dose: 100.0 mg/kg/injection, schedule: Q01DX001 (ip), vehicle: saline 108 % of control | dose: 200.0 mg/kg/injection, schedule: Q01DX001 (ip), vehicle: saline 97 % of control | dose: 400.0 mg/kg/injection, schedule: Q01DX001 (ip), vehicle: saline 99 % of control

Cc1cc(C)[n+]2n1C(=O)C(c1ccccc1)=C2[O-]
inactive: dose: 50.0 mg/kg/injection, schedule: Q01DX005 (ip), vehicle: Klucel + Tween-80 101 % of control | dose: 100.0 mg/kg/injection, schedule: Q01DX005 (ip), vehicle: Klucel + Tween-80 102 % of control | dose: 200.0 mg/kg/injection, schedule: Q01DX005 (ip), vehicle: Klucel + Tween-80 101 % of control

O=C1CNC(=O)N1c1ccccc1
inactive: [6] 103 % of control | [7] 98 % of control | dose: 400.0 mg/kg/injection, schedule: Q01DX009 (ip), vehicle: saline with Tween-80 103 % of control

O=C1C(N=Nc2cc(Cl)ccc2Cl)C(O)N(c2ccc(Cl)cc2)C(=S)N1c1cccc(Cl)c1Cl (centres undefined)
inactive: dose: 100.0 mg/kg/injection, schedule: Q04DX002 (ip), vehicle: Klucel (hydroxypropylcellulose) (HPC) 100 % of control | dose: 200.0 mg/kg/injection, schedule: Q04DX002 (ip), vehicle: Klucel (hydroxypropylcellulose) (HPC) 101 % of control | dose: 400.0 mg/kg/injection, schedule: Q04DX002 (ip), vehicle: Klucel (hydroxypropylcellulose) (HPC) 99 % of control

CC1(C2=CCCCC2)CCC(=O)NC1=O (centres undefined)
inactive: [8] 100 % of control | [9] 98 % of control | [10] 98 % of control

ClCCCSSCCCCl
inactive: dose: 30.0 mg/kg/injection, schedule: Q01DX005 (ip), vehicle: saline with Tween-80 107 % of control | [8] 110 % of control
